Broadly, the EC50 is the midpoint of the concentration-response curve. As usually defined, the CC50 is the concentration that lowers cell viability or growth by half.

SMILES strings stand for the structures. Several values for one entry are separate records, joined by “and”; a condition that tells them apart may be missing. Identical values can stand only once. Like-named read-outs stand apart in the source and are kept apart here.

This note sets out measurements from article PMC11960675, “3-Deazaguanosine inhibits SARS-CoV-2 viral replication and reduces the risk of COVID-19 pneumonia in hamster” (iScience, 2025).

Series [1] concerns SARS-CoV-2. Put plainly: microbe, parasite or virus in culture. The conditions noted are these: MOI 0.001, day 3 post-infection; for EC50: Severe acute respiratory syndrome coronavirus 2, Vero C1008, 72 h, footnote a: CPE assay, SARS-CoV-2-infected Vero E6 cells, read-out: EC50 (anti-SARS-CoV-2 activity, CPE assay); for Anti-SARS-CoV-2 activity by CPE assay (crystal violet staining): Vero E6 cells, 30 μM in Figure 2. The class given is cell-based.

Series [2] is described as follows: Cytotoxicity by WST-8 assay using uninfected Vero E6 cells. The class given is cell-based. The settings on record: African green monkey.
Series [3] deals with SARS-CoV-2. Put plainly: Syrian hamster model of COVID-19, inhalation treatment by nebulizer. The conditions noted are these: for Inflammatory area of lung sections: lung histopathology 5 dpi, INH 110 mg/kg/day qd.
For series [4], the system named is SARS-CoV-2. Put plainly: qRT-PCR of viral RNA using SARS-CoV-2-infected Vero E6 cells. The class given is cell-based. The conditions noted are these: Severe acute respiratory syndrome coronavirus 2, Vero C1008, footnote b: qRT-PCR of viral RNA, MOI 0.001, non-linear curve fit, read-out: EC50 (95% CI) (anti-SARS-CoV-2 activity, qRT-PCR of viral RNA). For orientation: In qPCR the cycle at which signal appears reflects the starting amount.

Series [5] has as its system SARS-CoV-2. Put plainly: Syrian hamster model of COVID-19, intraperitoneal treatment. The conditions noted are these: for Body weight change of infected hamsters / Inflammatory area of lung sections: IP, 2 at 110 mg/kg/day qd, Molnupiravir 220 mg/kg/day bid; for Inflammatory area of lung sections: lung histopathology 5 dpi.
Series [6] concerns the target recombinant SARS-CoV-2 RdRp complex (Severe acute respiratory syndrome coronavirus 2, UniProt P0DTD1). The class given is biochemical. The settings on record: 10 μM, 34°C, 2 h.
The target in series [7] is T1, vaccinia capping enzyme (VCE) (Vaccinia virus, UniProt P04298).
T1 construct: purchased CellScript C-SCCS2250
The class given is biochemical. The settings on record: model RNA fragment, 37°C, 2 h, LC-MS.

[8] abbreviates: WST-8 assay, uninfected Vero E6 cells, read-out: CC50.

Take `Nc1nccc2c1ncn2[C@@H]1O[C@H](CO)[C@@H](O)[C@H]1O` [Compound 1, 3-deazaadenosine]: in the series on SARS-CoV-2 [1], the EC50 was over 30 µM. The compound also gave a CC50 in series [2] of over 200 µM.

Take `Nc1cc2c(ncn2[C@@H]2O[C@H](CO)[C@@H](O)[C@H]2O)c(=O)[nH]1` [Compound 2, 3-Deazaguanosine]: the “Lower infectious viral titer in lungs (fold)” value is reported as “more than 10^2 fold” in the series with SARS-CoV-2 [3] (5 dpi, inhalation, approximately 110 mg/kg/day qd) and > 10^5 fold in the series on SARS-CoV-2 [5] (2 dpi, IP 110 mg/kg/day qd). For the same compound, the “Body weight loss associated with infection” value with SARS-CoV-2 [3] (inhalation, approximately 110 mg/kg/day qd) is “reduction in the body weight loss”. For the same compound, the “Inflammatory area of lung sections” value in the series with SARS-CoV-2 [3] is 0.98 (±0.36) % and 0.98 ± 0.36%; in the series on SARS-CoV-2 [5], 0.02 ± 0.02%. The EC50 with SARS-CoV-2 [4] is 1.14 µM. For the same compound, the “Body weight change of infected hamsters” value in the series on SARS-CoV-2 [5] is listed as “marginal reduction in body weight”. For the same compound, the “Anti-SARS-CoV-2 activity by CPE assay (crystal violet staining)” value (shortened to “Anti-SARS-CoV-2 activity by CPE assay”) in the series with SARS-CoV-2 [1] is reported as “inhibited viral replication”. In series [2], the CC50 is over 200 µM.

Take `Nc1cc2c(ncn2[C@@H]2O[C@H](COP(=O)(O)OP(=O)(O)OP(=O)(O)O)[C@@H](O)[C@H]2O)c(=O)[nH]1` [Compound 2-TP, 6-Amino-1-(β-D-ribofuranosyl)-1H-imidazo[4,5-c]pyridin-4(5H)-one 5′-triphosphate]: the “RNA synthesis by recombinant SARS-CoV-2 RdRp complex (fluorescence intensity)” value in series [6] was “not inhibited”. In addition, in series [7], the “5′-capped RNA formed by VCE in the presence of both GTP and the compound” value is “no 5′-capped RNA”; the “5′-capped RNA formed by VCE with the compound in place of GTP” value was “small amounts of 5′-C^3GpppA-capped RNA (IIIb) and 5′-m7C^3GpppG-capped RNA (IVb)”.

Regarding `OC[C@H]1O[C@@H](n2cnc3c(O)nccc32)[C@H](O)[C@@H]1O` [Compound 3, 3-deazainosine], the EC50 in the series with SARS-CoV-2 [1] is over 30 µM. The same compound displayed a CC50 in series [2] of over 200 µM.

For `Nc1[nH]c(=O)c2ncn([C@@H]3O[C@H](CO)[C@@H](O)[C@H]3O)c2c1F` [Compound 4, 3-fluoro-3-Deazaguanosine], in the series with SARS-CoV-2 [1], the EC50 was over 30 µM and the “Anti-SARS-CoV-2 activity by CPE assay” value is “loss of anti-viral activity”. For the same compound, the CC50 in series [2] is over 200 µM.

As for `Nc1[nH]c(=O)c2ncn([C@@H]3O[C@H](CO)[C@@H](O)[C@H]3O)c2c1Cl` [Compound 5, 3-chloro-3-Deazaguanosine], in the series with SARS-CoV-2 [1], the EC50 is over 30 µM and the “Anti-SARS-CoV-2 activity by CPE assay” value is “loss of anti-viral activity”. Further, the CC50 in series [2] is over 200 µM.

As to `Nc1cc2c(ncn2[C@@H]2O[C@H](CO)[C@@H](O)[C@H]2O)c(N)n1` [Compound 6, 4,6-Diamino-1-β-D-ribofuranosyl-1H-imidazo[4,5-c]pyridine], in the series on SARS-CoV-2 [1], the EC50 was over 30 µM and the “Anti-SARS-CoV-2 activity by CPE assay” value is reported as “no inhibitory effects”. Besides, the CC50 in series [2] is over 200 µM.

Regarding `Nc1cc2[nH]cnc2c(=O)[nH]1` [Compound 10, 6-Amino-1H-Imidazo[4,5-c]pyridin-4(5H)-one], in the series with SARS-CoV-2 [4], the EC50 was determined as 12.6 µM. Besides, in the series with SARS-CoV-2 [1], the “Anti-SARS-CoV-2 activity by CPE assay” value is reported as “had anti-SARS-CoV-2 activity”. Also, in series [2] (setting [8]), the CC50 was over 200 µM.

In the case of `Nc1cc2c(ncn2[C@H]2C[C@H](O)[C@@H](CO)O2)c(=O)[nH]1` [Compound 11, 6-Amino-1-(2-deoxy-β-D-ribofuranosyl)-1H-imidazo[4,5-c]pyridin-4(5H)-one], the EC50 in the series on SARS-CoV-2 [4] stood at 5.35 µM. Further, the “Anti-SARS-CoV-2 activity by CPE assay” value in the series with SARS-CoV-2 [1] is listed as “had anti-SARS-CoV-2 activity”. In addition, the CC50 in series [2] is over 200 µM.

Consider `CC(C)C(=O)OC[C@H]1O[C@@H](n2ccc(NO)nc2=O)[C@H](O)[C@@H]1O` [Molnupiravir, reference compound], for which, in the series with SARS-CoV-2 [3], the “Inflammatory area of lung sections” value is listed as 4.77 (±3.04) %. For the same compound, in the series with SARS-CoV-2 [5], the “Body weight change of infected hamsters” value is reported as “marginal reduction in body weight” and the “Inflammatory area of lung sections” value came to 0.24 ± 0.16%.

For `O=c1nc(NO)ccn1[C@@H]1O[C@H](CO)[C@@H](O)[C@H]1O` [NHC, N^4-hydroxy cytidine, reference compound], the EC50 in the series on SARS-CoV-2 [4] was determined as 0.27 µM. This compound also gave a CC50 in series [2] of over 200 µM.

As for `CCC(CC)COC(=O)[C@H](C)N[P@](=O)(OC[C@H]1O[C@@](C#N)(c2ccc3c(N)ncnn23)[C@H](O)[C@@H]1O)Oc1ccccc1` [Remdesivir, reference compound], the EC50 with SARS-CoV-2 [4] was 0.47 µM. Moreover, in series [2] (setting [8]), the CC50 is over 200 µM.

On to `Nc1nc2c(ncn2[C@H]2CC[C@@H](COP(=O)(O)OP(=O)(O)OP(=O)(O)O)O2)c(=O)[nH]1` [ddGTP, 2′,3′-dideoxy GTP, reference compound], for which, in series [6], the “RNA synthesis by recombinant SARS-CoV-2 RdRp complex (fluorescence intensity)” value is “reduced”.
